The experiment in a line: Liposome leakage assay (ANTS/DPX fluorescence). The format is biochemical. The note with it: 25°C, pH 7.4, fluorescence at 510 nm, triplicate; for leakage of ANTS from liposomes: 0 to 90 µg/ml. The procedure: To assess the membranolytic effect of Cypep-1 on the integrity of phospholipid model membranes, liposome leakage assays monitored by fluorescence spectroscopy were performed on 200 nm liposomes as described earlier. […] (purchased from CPC Scientific, San Jose, CA) was used as control in the leakage assays (Peptide A).
Negatively charged PBPS: EYL (1:1 mixture) as well as neutral pure EYL vesicles were used, in which both liposome types encapsulated the fluorochrome ANTS (8 aminonaphtalene-1,3,6 trisulfonic acid) and its corresponding quencher DPX (p-xylene-bis[N-pyridinium bromide]). In principle, a disruption of the liposomes' bi-layer induces leakage of the fluorophore ANTS. This entails an increase in fluorescence at 510 nm. All fluorescence spectra were recorded at 25°C and pH 7.4 on a Cary Eclipse Fluorescence Spectrophotometer (Varian Optical Spectroscopy Instruments, Mulgrave, Victoria, Australia). The respective titrations with Cypep-1 and the control Peptide A were performed in concentrations ranging from 0 µg/ml to 90 µg/ ml (0 µM to 26 µM). The fluorescence was measured for each concentration point of the concentration series, and all measurements were performed in triplicate. At the end of each measurement, Triton X-100 was added to a final concentration of 2 mM, to obtain the maximum membrane leakage. The resulting maximum fluorescence at 510 nm is defined as 100%, i.e. complete liposome breakdown. The induced leakages of the fluorophore ANTS due to exposure to the peptides were then evaluated as a percentage of its complete release after Triton X-100 exposure. The initial fluorescence intensity of the respective liposome solutions was defined as 0% leakage.

Turning to YGRKKRRQRRRGKTLRVAKAIYKRYIE [Cypep-1], the “leakage of ANTS from liposomes” value reads like this: (200 nm EYL liposomes) “significant leakage of ANTS”; (200 nm liposomes PBPS:EYL 1:1) “significant leakage of ANTS”. In addition, the EC50 (ANTS/DPX leakage, 200 nm liposomes PBPS:EYL 1:1, read-out: S0.5, concentration necessary to achieve membrane disruption) was 8.3 ± 0.5 µM.

Values taken from publication PMC4104761, “Identification of a novel lytic peptide for the treatment of solid tumours” (Genes & Cancer, 2014).
